# Measurements reported in the NIST ThermoML archive (doi:10.1016/j.jct.2018.04.001).
# ± gives the expanded uncertainty stated by the source.
# Settings: Liquid, Vibrating wire viscometry
structure (smiles),measurement,setting,value
"FC(F)(F)/C=C/Cl [(E)-1-chloro-3,3,3-trifluoroprop-1-ene]",viscosity,"243.14 K, 5000 kPa",0.5536 ± 0.012 mPa·s
same,viscosity,"243.15 K, 200 kPa",0.5325 ± 0.012 mPa·s
same,viscosity,"243.15 K, 1000 kPa",0.542 ± 0.012 mPa·s
same,viscosity,"243.15 K, 10000 kPa",0.5859 ± 0.013 mPa·s
same,viscosity,"243.15 K, 20000 kPa",0.6281 ± 0.014 mPa·s
same,viscosity,"243.15 K, 30000 kPa",0.6899 ± 0.015 mPa·s
same,viscosity,"243.15 K, 40000 kPa",0.7324 ± 0.016 mPa·s
same,viscosity,"253.14 K, 20000 kPa",0.5583 ± 0.013 mPa·s
same,viscosity,"253.15 K, 200 kPa",0.4733 ± 0.011 mPa·s
same,viscosity,"253.15 K, 1000 kPa",0.4782 ± 0.011 mPa·s
same,viscosity,"253.15 K, 5000 kPa",0.4887 ± 0.011 mPa·s
same,viscosity,"253.15 K, 10000 kPa",0.5179 ± 0.012 mPa·s
same,viscosity,"253.15 K, 30000 kPa",0.6008 ± 0.013 mPa·s
same,viscosity,"253.15 K, 40000 kPa",0.6521 ± 0.014 mPa·s
same,viscosity,"263.14 K, 200 kPa",0.4168 ± 0.0097 mPa·s
same,viscosity,"263.15 K, 1000 kPa",0.4194 ± 0.0098 mPa·s
same,viscosity,"263.15 K, 5000 kPa",0.433 ± 0.01 mPa·s
same,viscosity,"263.15 K, 10000 kPa",0.455 ± 0.01 mPa·s
same,viscosity,"263.15 K, 20000 kPa",0.4998 ± 0.011 mPa·s
same,viscosity,"263.15 K, 30000 kPa",0.539 ± 0.012 mPa·s
same,viscosity,"263.16 K, 40000 kPa",0.5767 ± 0.013 mPa·s
same,viscosity,"273.14 K, 30000 kPa",0.4792 ± 0.011 mPa·s
same,viscosity,"273.15 K, 200 kPa",0.3733 ± 0.0089 mPa·s
same,viscosity,"273.15 K, 1000 kPa",0.3741 ± 0.0089 mPa·s
same,viscosity,"273.15 K, 5000 kPa",0.3892 ± 0.0092 mPa·s
same,viscosity,"273.15 K, 10000 kPa",0.4091 ± 0.0096 mPa·s
same,viscosity,"273.15 K, 20000 kPa",0.4448 ± 0.01 mPa·s
same,viscosity,"273.15 K, 40000 kPa",0.5197 ± 0.012 mPa·s
same,viscosity,"283.14 K, 200 kPa",0.3347 ± 0.0082 mPa·s
same,viscosity,"283.14 K, 10000 kPa",0.3688 ± 0.0088 mPa·s
same,viscosity,"283.15 K, 1000 kPa",0.3363 ± 0.0082 mPa·s
same,viscosity,"283.15 K, 5000 kPa",0.351 ± 0.0085 mPa·s
same,viscosity,"283.15 K, 20000 kPa",0.4033 ± 0.0095 mPa·s
same,viscosity,"283.15 K, 30000 kPa",0.4368 ± 0.01 mPa·s
same,viscosity,"283.15 K, 40000 kPa",0.4708 ± 0.011 mPa·s
same,viscosity,"293.14 K, 20000 kPa",0.3656 ± 0.0088 mPa·s
same,viscosity,"293.14 K, 40000 kPa",0.428 ± 0.0099 mPa·s
same,viscosity,"293.15 K, 200 kPa",0.3004 ± 0.0076 mPa·s
same,viscosity,"293.15 K, 1000 kPa",0.3033 ± 0.0076 mPa·s
same,viscosity,"293.15 K, 5000 kPa",0.316 ± 0.0079 mPa·s
same,viscosity,"293.15 K, 10000 kPa",0.3332 ± 0.0082 mPa·s
same,viscosity,"293.15 K, 30000 kPa",0.3971 ± 0.0094 mPa·s
same,viscosity,"303.15 K, 200 kPa",0.2719 ± 0.0071 mPa·s
same,viscosity,"303.15 K, 1000 kPa",0.2743 ± 0.0071 mPa·s
same,viscosity,"303.15 K, 5000 kPa",0.2874 ± 0.0073 mPa·s
same,viscosity,"303.15 K, 10000 kPa",0.3033 ± 0.0076 mPa·s
same,viscosity,"303.15 K, 20000 kPa",0.3337 ± 0.0082 mPa·s
same,viscosity,"303.15 K, 30000 kPa",0.3635 ± 0.0087 mPa·s
same,viscosity,"303.16 K, 40000 kPa",0.393 ± 0.0093 mPa·s
same,viscosity,"313.15 K, 300 kPa",0.2464 ± 0.0066 mPa·s
same,viscosity,"313.15 K, 10000 kPa",0.2767 ± 0.0072 mPa·s
same,viscosity,"313.15 K, 20000 kPa",0.3058 ± 0.0077 mPa·s
same,viscosity,"313.15 K, 30000 kPa",0.3337 ± 0.0082 mPa·s
same,viscosity,"313.15 K, 40000 kPa",0.3611 ± 0.0087 mPa·s
same,viscosity,"313.16 K, 1000 kPa",0.2489 ± 0.0067 mPa·s
same,viscosity,"313.16 K, 5000 kPa",0.2611 ± 0.0069 mPa·s
same,viscosity,"323.14 K, 40000 kPa",0.3345 ± 0.0082 mPa·s
same,viscosity,"323.15 K, 400 kPa",0.2243 ± 0.0062 mPa·s
same,viscosity,"323.15 K, 1000 kPa",0.2267 ± 0.0063 mPa·s
same,viscosity,"323.15 K, 5000 kPa",0.2393 ± 0.0065 mPa·s
same,viscosity,"323.15 K, 10000 kPa",0.254 ± 0.0068 mPa·s
same,viscosity,"323.15 K, 20000 kPa",0.2819 ± 0.0072 mPa·s
same,viscosity,"323.15 K, 30000 kPa",0.3084 ± 0.0077 mPa·s
same,viscosity,"333.15 K, 500 kPa",0.2047 ± 0.0059 mPa·s
same,viscosity,"333.15 K, 1000 kPa",0.2069 ± 0.006 mPa·s
same,viscosity,"333.15 K, 5000 kPa",0.2192 ± 0.0062 mPa·s
same,viscosity,"333.15 K, 10000 kPa",0.2344 ± 0.0064 mPa·s
same,viscosity,"333.15 K, 20000 kPa",0.262 ± 0.0069 mPa·s
same,viscosity,"333.15 K, 30000 kPa",0.2888 ± 0.0074 mPa·s
same,viscosity,"333.15 K, 40000 kPa",0.3147 ± 0.0078 mPa·s
same,viscosity,"343.14 K, 30000 kPa",0.2702 ± 0.007 mPa·s
same,viscosity,"343.14 K, 40000 kPa",0.2946 ± 0.0075 mPa·s
same,viscosity,"343.15 K, 600 kPa",0.1887 ± 0.0057 mPa·s
same,viscosity,"343.15 K, 1000 kPa",0.1903 ± 0.0057 mPa·s
same,viscosity,"343.15 K, 5000 kPa",0.2029 ± 0.0059 mPa·s
same,viscosity,"343.15 K, 10000 kPa",0.2179 ± 0.0061 mPa·s
same,viscosity,"343.15 K, 20000 kPa",0.245 ± 0.0066 mPa·s
same,viscosity,"353.14 K, 10000 kPa",0.1999 ± 0.0058 mPa·s
same,viscosity,"353.14 K, 30000 kPa",0.2503 ± 0.0067 mPa·s
same,viscosity,"353.15 K, 5000 kPa",0.1846 ± 0.0056 mPa·s
same,viscosity,"353.15 K, 20000 kPa",0.2277 ± 0.0063 mPa·s
same,viscosity,"353.15 K, 40000 kPa",0.2733 ± 0.0071 mPa·s
same,viscosity,"363.15 K, 5010 kPa",0.1701 ± 0.0054 mPa·s
same,viscosity,"363.15 K, 10000 kPa",0.1845 ± 0.0056 mPa·s
same,viscosity,"363.15 K, 20000 kPa",0.2107 ± 0.006 mPa·s
same,viscosity,"363.15 K, 40000 kPa",0.257 ± 0.0068 mPa·s
same,viscosity,"363.16 K, 30000 kPa",0.2345 ± 0.0064 mPa·s
same,viscosity,"373.14 K, 40000 kPa",0.2449 ± 0.0066 mPa·s
same,viscosity,"373.15 K, 5000 kPa",0.1581 ± 0.0052 mPa·s
same,viscosity,"373.15 K, 10000 kPa",0.1734 ± 0.0054 mPa·s
same,viscosity,"373.15 K, 20000 kPa",0.1996 ± 0.0058 mPa·s
same,viscosity,"373.15 K, 30000 kPa",0.2229 ± 0.0062 mPa·s
